This passage reports inhibition results from article PMC6934184, “Selective DNA-PKcs inhibition extends the therapeutic index of localized radiotherapy and chemotherapy” (The Journal of Clinical Investigation, 2019).

A word on the inhibition: it is the relative decrease from the control value, in per cent. Low values mean a response near the control, high ones a response far below the control.

For the experiment, the target named is T1, TBK1 (Homo sapiens, UniProt Q9UHD2).
T1 construct: purchased Thermo Fisher Scientific (Life Technologies) SelectScreen
Description: SelectScreen Z'LYTE. Type of experiment: biochemical. An outline of the steps: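 SelectScreen broad panel; activity (Z'LYTE, Adapta) plus binding formats. ATP: Km app for CSF1R Z'LYTE; 10 for CAMK1 Adapta. Readout = % per kinase.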

T1 sequence (Q9UHD2 whole entry): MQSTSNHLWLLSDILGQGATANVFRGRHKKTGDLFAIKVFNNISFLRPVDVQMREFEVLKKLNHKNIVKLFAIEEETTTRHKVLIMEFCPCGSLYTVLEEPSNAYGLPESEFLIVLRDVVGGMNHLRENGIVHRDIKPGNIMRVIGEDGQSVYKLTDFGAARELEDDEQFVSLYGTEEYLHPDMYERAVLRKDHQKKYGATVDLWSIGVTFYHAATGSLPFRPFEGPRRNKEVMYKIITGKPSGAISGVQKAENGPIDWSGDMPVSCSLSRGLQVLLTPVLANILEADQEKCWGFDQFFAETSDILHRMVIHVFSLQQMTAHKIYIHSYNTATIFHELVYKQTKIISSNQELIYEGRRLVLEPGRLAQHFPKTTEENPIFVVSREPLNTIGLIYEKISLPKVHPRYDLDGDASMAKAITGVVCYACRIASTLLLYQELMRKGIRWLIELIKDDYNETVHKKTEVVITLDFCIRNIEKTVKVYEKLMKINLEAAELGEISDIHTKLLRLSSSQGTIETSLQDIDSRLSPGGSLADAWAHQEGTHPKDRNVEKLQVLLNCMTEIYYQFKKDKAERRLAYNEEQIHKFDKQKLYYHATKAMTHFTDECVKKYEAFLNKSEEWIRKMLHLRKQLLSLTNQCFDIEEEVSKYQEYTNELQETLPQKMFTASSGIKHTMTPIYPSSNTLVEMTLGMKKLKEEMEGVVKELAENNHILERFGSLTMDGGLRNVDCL

`CN(C(=O)CN1CCOCC1)c1ccc2sc3c(-c4cccc5c(=O)cc(N6CC7CCC(C6)O7)oc45)cccc3c2c1` [NU5455]: the inhibition at 1 µM came to 2%.
